Patent publication US20250368649A1, “TETRAHYDROPYRIDOPYRIMIDINE PAN-KRAS INHIBITORS” (Mirati Therapeutics, Inc., priority 2022, published 2025)

Tests used:
KRas Q61H = KRas Q61H (Homo sapiens, UniProt P01116, Q61H); test: KRas binding assay (TR-FRET displacement), KRas Q61H; conditions: TR-FRET displacement
KRas G12D = KRas G12D (Homo sapiens, UniProt P01116, G12D); test: biochemical; conditions: Binding to KRas (IC50 nM) G12D, TR-FRET displacement, KRas G12D
KRas G12V = KRas G12V (Homo sapiens, UniProt P01116, G12V); test: biochemical; conditions: Binding to KRas (IC50 nM) G12V, TR-FRET displacement, KRas G12V
KRas G12A = KRas G12A (Homo sapiens, UniProt P01116, G12A); format: binding; conditions: TR-FRET displacement, read-out: Binding to KRas (IC50 nM) G12A
KRas G13D = KRas G13D (Homo sapiens, UniProt P01116, G13D); format: binding; conditions: TR-FRET displacement, read-out: Binding to KRas (IC50 nM) G13D
KRas G12S = KRas G12S (Homo sapiens, UniProt P01116, G12S); format: binding; conditions: TR-FRET displacement, read-out: Binding to KRas (IC50 nM) G12S
KRas G12C = KRas G12C (Homo sapiens, UniProt P01116, G12C); format: binding; conditions: TR-FRET displacement, read-out: Binding to KRas (IC50 nM) G12C
KRas WT = KRas WT (Homo sapiens, UniProt P01116); test: KRas binding assay (TR-FRET displacement), KRas WT; conditions: TR-FRET displacement
Chain of KRas WT (P01116 1-169 isoform P01116-2): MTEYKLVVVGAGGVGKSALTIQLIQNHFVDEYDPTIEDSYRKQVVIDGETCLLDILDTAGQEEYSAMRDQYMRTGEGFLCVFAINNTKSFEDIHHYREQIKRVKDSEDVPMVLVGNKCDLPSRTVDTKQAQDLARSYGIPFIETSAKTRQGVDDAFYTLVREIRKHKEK

Chain of KRas G12D (P01116 1-169 isoform P01116-2 G12D): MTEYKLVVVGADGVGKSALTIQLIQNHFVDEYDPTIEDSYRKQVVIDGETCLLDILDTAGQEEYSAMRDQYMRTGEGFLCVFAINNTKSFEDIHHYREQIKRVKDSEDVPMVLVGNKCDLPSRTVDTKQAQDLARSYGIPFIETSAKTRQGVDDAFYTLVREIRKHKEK
Chain of KRas G13D (P01116 1-169 isoform P01116-2 G13D): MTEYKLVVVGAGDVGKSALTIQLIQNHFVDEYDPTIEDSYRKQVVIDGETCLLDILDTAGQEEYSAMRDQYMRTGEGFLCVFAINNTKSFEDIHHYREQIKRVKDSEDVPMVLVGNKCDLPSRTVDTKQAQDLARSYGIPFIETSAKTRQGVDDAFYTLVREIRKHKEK
Chain of KRas G12A (P01116 1-169 isoform P01116-2 G12A): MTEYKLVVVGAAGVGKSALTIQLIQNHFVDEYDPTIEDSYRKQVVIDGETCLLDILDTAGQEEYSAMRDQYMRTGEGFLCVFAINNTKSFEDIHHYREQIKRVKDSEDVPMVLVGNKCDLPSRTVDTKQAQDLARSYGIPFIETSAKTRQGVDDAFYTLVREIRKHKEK
Chain of KRas G12S (P01116 1-169 isoform P01116-2 G12S): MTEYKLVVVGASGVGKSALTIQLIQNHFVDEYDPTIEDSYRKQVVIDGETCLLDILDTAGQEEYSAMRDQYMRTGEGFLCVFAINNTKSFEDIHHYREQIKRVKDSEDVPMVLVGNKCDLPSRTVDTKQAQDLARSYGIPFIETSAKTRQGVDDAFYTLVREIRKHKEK
Chain of KRas G12V (P01116 1-169 isoform P01116-2 G12V): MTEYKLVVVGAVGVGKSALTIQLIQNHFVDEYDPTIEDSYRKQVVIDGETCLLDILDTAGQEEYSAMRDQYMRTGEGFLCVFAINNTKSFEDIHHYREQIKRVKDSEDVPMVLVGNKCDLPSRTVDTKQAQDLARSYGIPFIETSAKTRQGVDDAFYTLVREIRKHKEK
Chain of KRas Q61H (P01116 1-169 isoform P01116-2 Q61H): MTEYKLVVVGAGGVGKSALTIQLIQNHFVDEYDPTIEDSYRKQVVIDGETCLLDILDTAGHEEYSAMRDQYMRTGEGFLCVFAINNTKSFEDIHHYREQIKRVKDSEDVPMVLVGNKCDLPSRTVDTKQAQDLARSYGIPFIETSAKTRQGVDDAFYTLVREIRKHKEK
Chain of KRas G12C (P01116 1-169 isoform P01116-2 G12C): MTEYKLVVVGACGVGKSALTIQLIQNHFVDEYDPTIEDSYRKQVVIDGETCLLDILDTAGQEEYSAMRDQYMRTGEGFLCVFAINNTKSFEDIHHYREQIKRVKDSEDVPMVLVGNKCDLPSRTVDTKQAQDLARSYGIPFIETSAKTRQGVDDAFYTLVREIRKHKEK

Molecule `CCc1cccc2cccc(N3CCc4c(nc(OCC5(CN(C)C)CC5)nc4NCc4ccnn4C4CC4(F)F)C3)c12` (stereo not drawn) [Example 541, N-((1-(2,2-difluorocyclopropyl)-1H-pyrazol-5-yl)methyl)-2-((1-((dimethylamino)methyl)cyclopropyl)methoxy)-7-(8-ethylnaphthalen-1-yl)-5,6,7,8-tetrahydropyrido[3,4-d]pyrimidin-4-amine] has an IC50 (KRas Q61H) of 298 nM, an IC50 (KRas G12D) of 10000 nM and an IC50 (KRas G12V) of 5980 nM. It also gave an IC50 (KRas G12A) of 259 nM, an IC50 (KRas G13D) of 200 nM and an IC50 (KRas G12S) of 169 nM. For the same molecule, the IC50 (KRas G12C) was 165 nM and the IC50 (KRas WT) was 256 nM.

With `CCc1cccc2cccc(N3CCc4c(nc(OCC5(CN(C)C)CC5)nc4N4CCOC(c5noc(C6CC6)n5)C4)C3)c12` (stereo not drawn) [Example 566, 1-(1-(((4-(2-(5-cyclopropyl-1,2,4-oxadiazol-3-yl)morpholino)-7-(8-ethylnaphthalen-1-yl)-5,6,7,8-tetrahydropyrido[3,4-d]pyrimidin-2-yl)oxy)methyl)cyclopropyl)-N,N-dimethylmethanamine] the IC50 (KRas Q61H) was 15200 nM, the IC50 (KRas G12D) was 35600 nM and the IC50 (KRas G12V) was 5700 nM. For the same molecule, the IC50 (KRas G12A) was 7990 nM, the IC50 (KRas G13D) was 15300 nM and the IC50 (KRas G12S) was 8690 nM. The IC50 (KRas G12C) was 3760 nM and the IC50 (KRas WT) was 8780 nM.

`CCc1cccc2cccc(N3CCc4c(nc(OCC5(CN(C)C)CC5)nc4N(C)Cc4nnc5n4CC(C(F)(F)F)CC5)C3)c12` (stereo not drawn) [Example 548, 2-((1-((dimethylamino)methyl)cyclopropyl)methoxy)-7-(8-ethylnaphthalen-1-yl)-N-methyl-N-((6-(trifluoromethyl)-5,6,7,8-tetrahydro-[1,2,4]triazolo[4,3-a]pyridin-3-yl)methyl)-5,6,7,8-tetrahydropyrido[3,4-d]pyrimidin-4-amine] showed an IC50 (KRas Q61H) of 11100 nM, an IC50 (KRas G12D) of 16700 nM and an IC50 (KRas G12V) of 5890 nM. It also gave an IC50 (KRas G12A) of 6790 nM, an IC50 (KRas G13D) of 13900 nM and an IC50 (KRas G12S) of 8210 nM. The IC50 (KRas G12C) was 4120 nM and the IC50 (KRas WT) was 10000 nM.

Molecule `CCc1cccc2cccc(N3CCc4c(nc(OCC5(CN(C)C)CC5)nc4NCc4cnc(C)nc4N)C3)c12` [Example 677, N-((4-amino-2-methylpyrimidin-5-yl)methyl)-2-((1-((dimethylamino)methyl)cyclopropyl)methoxy)-7-(8-ethylnaphthalen-1-yl)-5,6,7,8-tetrahydropyrido[3,4-d]pyrimidin-4-amine] has an IC50 (KRas Q61H) of 14100 nM, an IC50 (KRas G12D) of 2330 nM and an IC50 (KRas G12V) of 4410 nM. The IC50 (KRas G12A) was 9110 nM, the IC50 (KRas G13D) was 13900 nM and the IC50 (KRas G12S) was 13600 nM. The IC50 (KRas G12C) was 6330 nM and the IC50 (KRas WT) was 11000 nM.

Work on `CCc1cccc2cccc(N3CCc4c(nc(OCC5(CN(C)C)CC5)nc4N(C)Cc4nnc5n4CCOC5)C3)c12` [Example 538, N-((5,6-dihydro-8H-[1,2,4]triazolo[3,4-c][1,4]oxazin-3-yl)methyl)-2-((1-((dimethylamino)methyl)cyclopropyl)methoxy)-7-(8-ethylnaphthalen-1-yl)-N-methyl-5,6,7,8-tetrahydropyrido[3,4-d]pyrimidin-4-amine] yielded an IC50 (KRas Q61H) of 4350 nM, an IC50 (KRas G12D) of 9040 nM and an IC50 (KRas G12V) of 1860 nM. For the same molecule, the IC50 (KRas G12A) was 2530 nM, the IC50 (KRas G13D) was 4360 nM and the IC50 (KRas G12S) was 2780 nM. The IC50 (KRas G12C) was 1330 nM and the IC50 (KRas WT) was 3000 nM.

`CCc1cccc2cccc(N3CCc4c(nc(OCC5(CN(C)C)CC5)nc4NCc4ncc5c(n4)CCOC5)C3)c12` [Example 701, N-((7,8-dihydro-5H-pyrano[4,3-d]pyrimidin-2-yl)methyl)-2-((1-((dimethylamino)methyl)cyclopropyl)methoxy)-7-(8-ethylnaphthalen-1-yl)-5,6,7,8-tetrahydropyrido[3,4-d]pyrimidin-4-amine] was tested, and the IC50 (KRas Q61H) was 6070 nM, the IC50 (KRas G12D) was 7730 nM and the IC50 (KRas G12V) was 2030 nM. It also gave an IC50 (KRas G12A) of 6300 nM, an IC50 (KRas G13D) of 6620 nM and an IC50 (KRas G12S) of 5830 nM. For the same molecule, the IC50 (KRas G12C) was 3620 nM and the IC50 (KRas WT) was 5290 nM.

Molecule `CCc1cccc2cccc(N3CCc4c(nc(OCC5(CN(C)C)CC5)nc4N(C)CC4CCC(=O)N4)C3)c12` (stereo not drawn) [Example 551, 5-(((2-((1-((dimethylamino)methyl)cyclopropyl)methoxy)-7-(8-ethylnaphthalen-1-yl)-5,6,7,8-tetrahydropyrido[3,4-d]pyrimidin-4-yl)(methyl)amino)methyl)pyrrolidin-2-one] has an IC50 (KRas Q61H) of 10700 nM, an IC50 (KRas G12D) of 18300 nM and an IC50 (KRas G12V) of 2520 nM. For the same molecule, the IC50 (KRas G12A) was 11700 nM, the IC50 (KRas G13D) was 9890 nM and the IC50 (KRas G12S) was 11900 nM. For the same molecule, the IC50 (KRas G12C) was 6900 nM and the IC50 (KRas WT) was 6320 nM.

With `CCc1cccc2cccc(N3CCc4c(nc(OCC5(CN(C)C)CC5)nc4NCCC4CC(C)(C)NC4=O)C3)c12` (stereo not drawn) [Example 547, 3-(2-((2-((1-((dimethylamino)methyl)cyclopropyl)methoxy)-7-(8-ethylnaphthalen-1-yl)-5,6,7,8-tetrahydropyrido[3,4-d]pyrimidin-4-yl)amino)ethyl)-5,5-dimethylpyrrolidin-2-one] the IC50 (KRas Q61H) was 784 nM, the IC50 (KRas G12D) was 15900 nM and the IC50 (KRas G12V) was 2320 nM. It also gave an IC50 (KRas G12A) of 798 nM, an IC50 (KRas G13D) of 680 nM and an IC50 (KRas G12S) of 707 nM. It also gave an IC50 (KRas G12C) of 622 nM and an IC50 (KRas WT) of 667 nM.

Molecule `CCc1cccc2cccc(N3CCc4c(nc(OCC5(CN(C)C)CC5)nc4NCc4nnc(C5CCCO5)[nH]4)C3)c12` (stereo not drawn) [Example 531, 2-((1-((dimethylamino)methyl)cyclopropyl)methoxy)-7-(8-ethylnaphthalen-1-yl)-N-((5-(tetrahydrofuran-2-yl)-4H-1,2,4-triazol-3-yl)methyl)-5,6,7,8-tetrahydropyrido[3,4-d]pyrimidin-4-amine] has an IC50 (KRas Q61H) of 22400 nM, an IC50 (KRas G12D) of 6830 nM and an IC50 (KRas G12V) of 5700 nM. The IC50 (KRas G12A) was 17200 nM, the IC50 (KRas G13D) was 24900 nM and the IC50 (KRas G12S) was 19900 nM. It also gave an IC50 (KRas G12C) of 9540 nM and an IC50 (KRas WT) of 17000 nM.

With `CCc1cccc2cccc(N3CCc4c(nc(OCC5(CN(C)C)CC5)nc4N4CCCCC(CCOC)C4)C3)c12` (stereo not drawn) [Example 559, 1-(1-(((7-(8-ethylnaphthalen-1-yl)-4-(3-(2-methoxyethyl)azepan-1-yl)-5,6,7,8-tetrahydropyrido[3,4-d]pyrimidin-2-yl)oxy)methyl)cyclopropyl)-N,N-dimethylmethanamine] the IC50 (KRas Q61H) was 23300 nM, the IC50 (KRas G12D) was 24700 nM and the IC50 (KRas G12V) was 9180 nM. For the same molecule, the IC50 (KRas G12A) was 11900 nM, the IC50 (KRas G13D) was 45100 nM and the IC50 (KRas G12S) was 29400 nM. It also gave an IC50 (KRas G12C) of 12000 nM and an IC50 (KRas WT) of 11900 nM.

For `CCc1cccc2cccc(N3CCc4c(nc(OCC5(CN(C)C)CC5)nc4NCC4COCC4n4cc(C(N)=O)nn4)C3)c12` (stereo not drawn) [Example 705, 1-(4-(((2-((1-((dimethylamino)methyl)cyclopropyl)methoxy)-7-(8-ethylnaphthalen-1-yl)-5,6,7,8-tetrahydropyrido[3,4-d]pyrimidin-4-yl)amino)methyl)tetrahydrofuran-3-yl)-1H-1,2,3-triazole-4-carboxamide], the IC50 (KRas Q61H) was 15900 nM, the IC50 (KRas G12D) was 3070 nM and the IC50 (KRas G12V) was 8520 nM. It also gave an IC50 (KRas G12A) of 16500 nM, an IC50 (KRas G13D) of 21800 nM and an IC50 (KRas G12S) of 20500 nM. For the same molecule, the IC50 (KRas G12C) was 10900 nM and the IC50 (KRas WT) was 13300 nM.

Molecule `CCc1cccc2cccc(N3CCc4c(nc(OCC5(CN(C)C)CC5)nc4N4CCCn5nc(CO)cc5C4)C3)c12` [Example 694, (5-(2-((1-((dimethylamino)methyl)cyclopropyl)methoxy)-7-(8-ethylnaphthalen-1-yl)-5,6,7,8-tetrahydropyrido[3,4-d]pyrimidin-4-yl)-5,6,7,8-tetrahydro-4H-pyrazolo[1,5-a][1,4]diazepin-2-yl)methanol] has an IC50 (KRas Q61H) of 4850 nM, an IC50 (KRas G12D) of 131 nM and an IC50 (KRas G12V) of 437 nM. It also gave an IC50 (KRas G12A) of 2220 nM, an IC50 (KRas G13D) of 4480 nM and an IC50 (KRas G12S) of 946 nM. For the same molecule, the IC50 (KRas G12C) was 651 nM and the IC50 (KRas WT) was 1930 nM.
